Laboratory results published in ChEMBL document CHEMBL1141031, “Stereo-controlled synthesis of novel photoreactive gamma-secretase inhibitors” (Bioorg Med Chem Lett, 2009).
The source made the active and inactive calls. The rule behind the calls is not given here.

Columns and labels:
Gamma-secretase = test: Inhibition of human gamma secretase assessed as effect on C100Flag substrate cleavage; format: protein-complex assay
[1] = biological target: Presenilin-1 (Homo sapiens) (UniProt P49768); test: Binding affinity to presenilin-1 in UV irradiated human HeLa cells assessed as enzyme photolabeling at 10 uM by SDS-PAGE based photocross linking study; format: cell-based
[2] = biological target: Presenilin-1 (Homo sapiens) (UniProt P49768); test: Binding affinity to presenilin-1 in UV irradiated human HeLa cells assessed as enzyme photolabeling at 10 uM in presence of 2 uM L-685,458 by SDS-PAGE based photocross linking study; format: cell-based

IC50 (Gamma-secretase) [nM]	Activity [1]	Activity [2]	Compound
0.6	Active	inactive	CC(C)C[C@H](NC(=O)[C@H](Cc1ccccc1)C[C@@H](O)[C@H](Cc1ccc(C(=O)c2ccccc2)cc1)NC(=O)OC(C)(C)C)C(=O)N[C@@H](Cc1ccccc1)C(=O)NCCCCCNC(=O)CCCCC1SC[C@H]2NC(=O)N[C@@H]12 (some centres undefined)
0.7	–	–	COC(=O)[C@H](Cc1ccccc1)NC(=O)[C@H](CC(C)C)NC(=O)[C@H](Cc1ccccc1)C[C@@H](O)[C@H](Cc1ccc(C(=O)c2ccccc2)cc1)NC(=O)OC(C)(C)C
